From US9884122B2, “Small molecule drug conjugates” (Philochem AG, priority 2014, dated 2018)
Where two headings read alike, the source gives them in different places.

Assays:
[1] = test system: subcutaneous SKRC52 tumors
Description: SKRC52 cells were grown to 80% confluence and detached with Trypsin-EDTA 0.05% (Invitrogen). Cells were washed with PBS pH 7.4 once, counted and resuspended in PBS to a final concentration of 6.7×10^7 cells mL^−1. Athymic balb/c nu/nu mice, 8-10 weeks of age (Charles River) were anesthetized with isofluorane and aliquots of 1×10^7 cells (150 μL of suspension) injected subcutaneously into their lower back.
Food and water was given ad libitum during that period.
Mice were subsequently sacrificed by cervical dislocation.

[2] = test system: CAIX positive SKRC52 cells; assay: Ligand internalization analysis by flow cytometry, SKRC52; type: cell-based, human
Description: SKRC52 or A549 cells were seeded in 6-well plates in their appropriate culture medium (2 mL) at a density of 1.5×10^5 cells per well and allowed to grow for 24 h under culture conditions. The medium was replaced with medium containing IRDye750 (Licor) labeled probes 1c or 6c (2 mL, 30 nM) and plates incubated for 1, 2 or 4 h under standard culture conditions. After washing with PBS pH 7.4 (2×2 mL), Trypsin-EDTA 0.05% (500 μL, Invitrogen) was added and plates incubated under standard culture conditions for 15 min Medium (500 μL) was added, cells pelleted and resuspended in PBS pH 7.4 containing 1% v/v FCS (150 μL). After incubating for 15 min on ice, cells were labeled for 30 min on ice with rabbit anti human CAIX IgG (1:100, Santa Cruz) in PBS pH 7.4 containing 1% FCS (150 μL), washed with PBS pH 7.4 containing 1% FCS (2×150 μL) and labeled for 30 min on ice with goat anti rabbit IgG Alexa488 conjugate (1:100, Invitrogen) in PBS pH 7.4 containing 1% FCS (150 μL). After washing with PBS pH 7.4 containing 1% FCS (2×150 μL), cells were pelleted and resuspended in PBS pH 7.4 containing 1% v/v FCS and propidium iodide (300 μL, 1 μg mL^−1, Invitrogen) and analyzed on a FACS Canto flow cytometer (BD Bioscience). FlowJo Version 8.7 (Treestar) was used for data analysis and visualization. To inhibit uptake mechanisms, cells were pre-incubated with medium containing 0.2% NaN3 for 1 h and the NaN3 concentration maintained throughout the entire experiment. Alternatively, all steps were performed at 0° C. or an excess of AAZ (100 μM) was added to the culture medium.

[3] = test system: CAIX expressing SKRC52 cells; assay: Ligand binding analysis by flow cytometry, SKRC52; type: cell-based, human; details: 30 nM dye conjugate, 1 h at 0° C., washed
Description: Cells were detached from culture plates using a 50 mM EDTA solution in phosphate buffered saline (PBS) pH 7.4, counted and suspended to a final concentration of 1.5×10^6 cells mL^−1 in a 1% v/v solution of FCS in PBS pH 7.4. Aliquots of 3×10^5 cells (200 μL) were spun down and resuspended in solutions of IRDye750 (Licor) labeled ligands (30 nM) in a 1% v/v solution of FCS in PBS pH 7.4 (200 μL) and incubated on ice for 1 h. Cells were washed once with 200 μL 1% v/v solution of FCS in PBS pH 7.4 (200 μL), spun down, resuspended in 1% v/v solution of FCS in PBS pH 7.4 (300 μL) and analyzed on a FACS Canto flow cytometer (BD Bioscience). FlowJo Version 8.7 (Treestar) was used for data analysis and visualization. Results were as follows: • (1) Flow cytometry analysis of binding of ligand-IRDye750 conjugates 1c-6c (FIG. 1) to CAIX expressing SKRC52 cells.
Flow cytometry was performed as described above with monovalent and bivalent near infrared dye conjugates B3 and B4 and negative control conjugates lacking the ligand on CAIX-positive SKRC52 cells and CAIX-negative HEK cells^5.

[4] = test system: subcutaneous SKRC52 tumors; details: mouse, in vivo
Description: (§1) After 1 h, 2 h or 4 h animals were sacrificed, organs extracted as above, cut into small pieces, weighed and suspended in 1:1 w/v organ homogenization buffer containing EDTA (40 mM), proteinase K (6 mg/ml), Triton X-100 (1.6 μl/ml) and trace amounts of DNase 1 in PBS pH 7.4 (100 μL per 100 mg of tissue). The suspension was homogenized on a TissueLyser organ homogenizer (Quiagen, 25 Hz, 10 min), incubated for 2 h at room temperature and 100 μL of the homogenate transferred to a black 96-well plate. […] Fluorescent images of plates were recorded on an IVIS Spectrum imaging system (Xenogen, parameters as above) and analyzed using Living Image software version 4.3.1 (Caliper Life Science) using the built-in region of interest (ROI) tools. Dye concentrations in organ samples in % of injected dose per gram of tissue (% ID g^−1) were inferred from fluorescence intensities originating from the corresponding well by comparison with the standard dilution series.

in vivo = details: balb/c nu/nu, mouse, iv
Description: as §1

CAIX = molecular target: T1, CAIX (Homo sapiens, UniProt Q16790); assay: Affinity determination of CAIX ligands by fluorescence polarization; type: binding; details: PBS pH 7.4, 22° C., 1 h; read-out: Kd by fluorescence polarization in solution
T1 construct: His6; made in house
Description: Fluorescein labelled ligands (5 nM diluted with PBS from DMSO stocks, final DMSO content adjusted to 0.001%) were incubated at 22° C. for 1 h in a black 384-well plate (Greiner, non-binding) in PBS (pH 7.4) with increasing concentrations of CAIX to a final volume of 60 μl. The fluorescence anisotropy was measured on a Spectra Max Paradigm multimode plate reader (Molecular Devices). Experiments were performed in triplicate and the mean anisotropy values fitted to the following equation using KaleidaGraph 4.1.3 (Synergy Software),
[formula] where A is the anisotropy, [P]0 the total protein concentration, [L]0 the total concentration of the fluorescently labelled ligand and KD the dissociation constant.

Structure (SMILES) | tumor visibility by near infrared imaging ([1]; 1 nmol intravenous, 1 h) | tumor targeting by near infrared imaging ([1]; 3 nmol intravenous, 1-12 h) | internalization with extended incubation time ([2]; 30 nM at 37° C., 2 h and 4 h versus 1 h) | internalization under conditions inhibiting uptake ([2]; 30 nM, 0.2% w/v NaN3, same with excess AAZ or at 0° C.) | internalization: fluorescence after trypsin detachment ([2]; 30 nM, 1 h at 37° C.) | binding to SKRC52 cells (fluorescence shift) [3] | tumor to heart ratio [4] | tumor-to-blood ratio [4] | tumor-to-organ ratio, kidneys [4] | tumor-to-organ ratio, liver [4] | tumor-to-blood ratio ([4]; iv) | half-life (in vivo) [h] | Kd (CAIX) [pM]
CC1(C)C(/C=C/C2=C(c3ccc(CCCCC(=O)NCCOCCOCCNC(=O)CCC(=O)Nc4nnc(S(N)(=O)=O)s4)cc3)C(=C/C=C3/N(CCCCS(=O)(=O)O)c4ccc(S(=O)(=O)[O-])cc4C3(C)C)/CCC2)=[N+](CCCCS(=O)(=O)O)c2ccc(S(=O)(=O)O)cc21 [Compound 1c, N1-(2-(2-(2-aminoethoxy)ethoxy)ethyl)-N4-(5-sulfamoyl-1,3,4-thiadiazol-2-yl)succinamide IRDye750 conjugate] | the tumor could clearly be seen against background | gave good tumor to background contrast | did not see a markedly increased signal | fluorescent signal was shifted to baseline | higher fluorescence intensity than cells treated with non-binding conjugate 6c or untreated cells | binds strongly enough to result in a strong fluorescence shift after washing of cells | 27.6:1 | 79.2:1 | 1.4:1 | 0.2:1 | 13.8:1 | ~1 | 
CC(CCC(=O)N[C@@H](CC(=O)N[C@@H](CC(=O)N[C@@H](CCCCn1cc(CCCC(=O)Nc2nnc(S(N)(=O)=O)s2)nn1)C(=O)NCCOCCOCCN)C(=O)O)C(=O)O)(c1ccc(O)cc1)c1ccc(O)cc1 [Compound C5a, N-[4,4-bis(4-hydroxyphenyl)pentanoyl]-β-aspartyl-β-aspartyl-N-{2-[2-(2-aminoethoxy)ethoxy]ethyl}-6-(4-{4-oxo-4-[(5-sulfamoyl-1,3,4-thiadiazol-2-yl)amino]butyl}-1H-1,2,3-triazol-1-yl)-L-norleucinamide] |  |  |  |  |  |  |  |  |  |  |  |  | 200 ± 100
